According to patent publication US8202731B2, “HPTS-mono and bis Cys-MA polymerizable fluorescent dyes for use in analyte sensors” (Glumetrics, Inc., priority 2007, dated 2012):

Key:
Format in all cases: physicochemical
[1] = Fluorescence of the dye in pH 7.4 PBS measured on the fluorimeter; details: pH 7.4 PBS (FIG. 9)
Procedure: Bis-MA was dissolved in pH 7.4 PBS and its fluorescence was measured on the fluorimeter. FIG. 9 compares Bis-MA with the Mono- and Tri-substituted HPTS derivatives.

[2] = Comparison of dyes: emission/absorbance ratio (apparent quantum yield) in pH 7.4 PBS; details: 1 × 10^−5 M in pH 7.4 PBS
[3] = Determination of dye pKa via pH study, dye immobilized in 40% DMAA hydrogel
Procedure: A hydrogel was prepared containing mono-CysMA, as described previously in U.S. patent application Ser. No. 11/671,880, to evaluate the fluorescence properties (excitation (ex), emission (em) and pKa) of mono-CysMA.
A pH study was carried out with the gel.
The three polymerizable dyes were immobilized using 40% DMAA and their pKa determined via a pH study.

| SMILES | Shift of fluorescence spectrum relative to mono- and tri-substituted HPTS derivatives [1] | Absorbance [2] | Intensity at max ([2]; emission) | Ratio (“Quantum Yield”) ([2]; Em/Abs ratio, apparent quantum yield, arbitrary numbers) | pKa ([3]; dye immobilized in 40% DMAA hydrogel, polymerizable dyes immobilized using 40% DMAA, pH study) | pKa ([3]; pH study with hydrogel containing mono-CysMA (FIG. 2), HPTS given for comparison) |
| --- | --- | --- | --- | --- | --- | --- |
| C=C(C)C(=O)NCCCNS(=O)(=O)c1cc(S(=O)(=O)NCCCNC(=O)C(=C)C)c2ccc3c(S(=O)(=O)[O-])cc(O)c4ccc1c2c43.[Na+] [Bis-MA] | red-shifted relative to the Mono product but blue-shifted relative to the Tri product | – | – | – | – | – |
| O=S(=O)(O)c1cc(O)c2ccc3c(S(=O)(=O)O)cc(S(=O)(=O)O)c4ccc1c2c34 [HPTS, 8-hydroxypyrene-1,3,6-trisulfonic acid] | – | 0.1565 | 553 | 3533 | 7.3 | 7.3 |
